Values after ≈ are worked out from the molar mass of the structure shown.
Target: Platelet-activating factor receptor (Homo sapiens, UniProt P25105)
Assay: Antagonist activity at PAFR (unknown origin)
Type: functional
Conditions: not given

Chain of Platelet-activating factor receptor (P25105 whole entry): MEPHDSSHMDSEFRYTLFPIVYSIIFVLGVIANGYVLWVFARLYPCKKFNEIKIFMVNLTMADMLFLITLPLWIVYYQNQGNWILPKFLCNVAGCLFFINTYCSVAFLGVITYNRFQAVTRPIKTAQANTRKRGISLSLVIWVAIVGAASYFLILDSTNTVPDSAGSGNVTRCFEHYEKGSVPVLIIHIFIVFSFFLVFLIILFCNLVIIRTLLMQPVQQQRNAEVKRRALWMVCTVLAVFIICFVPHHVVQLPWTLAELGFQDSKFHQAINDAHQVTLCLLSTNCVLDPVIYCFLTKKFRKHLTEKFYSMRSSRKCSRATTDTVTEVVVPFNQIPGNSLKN

SMILES | IC50
C/C1=C\CC[C@]2(C)O[C@@H]3C[C@@H](C)[C@@](C)(CC1)C1=C3[C@](O)(OC1)[C@H]2O | 2.8 µM
C[C@@H]1[C@@H](O)C=C2C(=O)[C@H]3O[C@@]3(C)CCC[C@H]3O[C@@]3(C)C[C@]1(C)[C@@]2(C)O | 2.8 µM
C/C1=C\CC[C@@H]2O[C@H]2C(=O)C2=CC[C@@H](C)[C@@](C)(C[C@@H]1O)[C@@H]2C | 2.8 µM
C[C@@H]1CC=C2C(=O)[C@H]3O[C@]3(C)CC[C@@H]3O[C@@]3(C)CC[C@@]1(C)[C@@]2(C)O | 2.8 µM
C=C1C2=CC[C@@H](C)[C@@]1(C)CC/C(C)=C/CC[C@H]1O[C@@H]1C2=O | 2.5 µM
C=C1C2=CC[C@@H](C)[C@]1(C)CC[C@]1(C)O[C@H]1CC[C@@]1(C)O[C@@H]1C2=O | 2.8 µM
C[C@@H]1CC=C2C(=O)[C@H]3O[C@]3(C)CC[C@@H]3O[C@@]3(C)CC[C@@]1(C)[C@@H]2C | 2.8 µM

Test system: MCF7
Assay: Cytotoxicity against human MCF7 cells assessed as cell growth inhibition by MTT assay
Type: functional, cell-based
Conditions: not given

SMILES | IC50
C=C[C@]1(C)C=C2C(=O)C(O)=C3C(C)(C)CCC[C@]3(C)[C@@]2(O)CC1 | 35.9 µM
C=C[C@@]1(C)CCC2=C([C@H]1O)[C@H](O)[C@]1(O)OC[C@@]23CCCC(C)(C)[C@@]31O | > 70 µM
C=C[C@]1(C)C=C2C(=O)C(O)=C3C(C)(C)[C@@H](O)CC[C@]3(C)[C@@]2(O)[C@H](O)C1 | > 70 µM
C=C[C@]1(C)C=C2C(=O)C(O)=C3C(C)(C)[C@@H](O)CC[C@]3(C)[C@@]2(O)CC1 | 25.6 µM
C=C[C@@]1(C)CCC2=C([C@H](O)C(=O)[C@@]3(O)C(C)(C)CCC[C@]23C)[C@H]1O | > 70 µM

Target: Tyrosine-protein phosphatase non-receptor type 6 (Homo sapiens, UniProt P29350)
Sequence (P29350 whole entry): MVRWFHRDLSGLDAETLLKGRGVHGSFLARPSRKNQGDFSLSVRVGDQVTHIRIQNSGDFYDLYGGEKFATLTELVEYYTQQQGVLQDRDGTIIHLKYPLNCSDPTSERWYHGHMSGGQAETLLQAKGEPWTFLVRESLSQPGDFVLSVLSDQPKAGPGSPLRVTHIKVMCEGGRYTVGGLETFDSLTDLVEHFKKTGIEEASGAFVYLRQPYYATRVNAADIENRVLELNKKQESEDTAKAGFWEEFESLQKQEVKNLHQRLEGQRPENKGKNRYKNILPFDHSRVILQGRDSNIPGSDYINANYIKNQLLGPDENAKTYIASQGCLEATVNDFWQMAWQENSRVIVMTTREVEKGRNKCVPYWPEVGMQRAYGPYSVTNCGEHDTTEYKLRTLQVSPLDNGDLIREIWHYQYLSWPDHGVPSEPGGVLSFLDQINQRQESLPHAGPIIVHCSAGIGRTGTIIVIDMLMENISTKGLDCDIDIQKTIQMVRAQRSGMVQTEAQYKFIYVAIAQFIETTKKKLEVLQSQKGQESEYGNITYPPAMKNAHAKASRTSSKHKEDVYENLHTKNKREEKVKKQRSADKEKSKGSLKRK
Assay: Inhibition of recombinant human SHP1 expressed in Escherichia coli using pnitrophenyl phosphate as substrate preincubated for 15 mins followed by substrate addition measured after 60 mins by absorbance based assay
Conditions: not given

SMILES | IC50
COC(=O)[C@]12[C@](C)(C(=O)[C@@]1(C)O)C(C)=C[C@H]1[C@]34CC[C@H](OC(C)=O)C(C)(C)[C@H]3[C@H](C[C@@]12C)OC4=O | 23 µM
COC(=O)[C@@]12C(=O)[C@@](C)(O)[C@]1(C)C(C)=C[C@H]1[C@]34CC[C@H](OC(C)=O)C(C)(C)[C@H]3[C@H](C[C@@]12C)OC4=O | 34 µM
COC(=O)[C@@]12C(=O)[C@](C)(O)C(=O)[C@@H](C(C)=C1C)C1[C@]2(C)C[C@@H]2OC(=O)[C@]13CC[C@H](OC(C)=O)C(C)(C)[C@@H]23 (stereo not given in full) | 22 µM

Test system: HCT-116
Assay: Cytotoxicity against human HCT-116 cells assessed as cell growth inhibition incubated for 72 hrs by CellTiter 96 Aqueous One Solution Cell Proliferation assay
Type: functional, cell-based
Conditions: HCT-116, 72 h

SMILES | IC50
C=C1CC[C@H](Cl)C(C)(C)[C@@H]1C[C@@]12OC(C)(C)[C@H](Cl)C[C@]1(Cl)C(=O)C1=C(C2=O)C(=[N+]=[N-])C(=O)C(C)=C1O | 0.5 µM
C=C1CC[C@H](Cl)C(C)(C)[C@@H]1C[C@@]12OC(C)(C)[C@H](Cl)C[C@@]1(Cl)C(=O)c1c(cc(O)c(C)c1O)C2=O | 3 µM

Test system: Panel NCI-60 (60 carcinoma cell lines)
Assay: Cytotoxicity against human Panel NCI-60 (60 carcinoma cell lines) assessed as cell growth inhibition
Type: functional, cell-based
Conditions: not given

SMILES | IC50
C[C@H]1CC[C@@]23C1=C[C@@]1(C)CC[C@](C)(C[C@H](O)C(=O)[C@@](C)(O)CO)[C@H]1[C@@H]2CC[C@@H]3C | 18 µM
C[C@H]1CC[C@@]23C1=C[C@@]1(C)CC[C@](C)(C[C@H](O)[C@H](O)C(C)(C)O)[C@H]1[C@@H]2CC[C@@H]3C | 18 µM
C[C@H]1C[C@@H](O)[C@@]23C1=C[C@@]1(C)CC[C@](C)(C[C@H](O)[C@H](O)C(C)(C)O)[C@H]1[C@@H]2CC[C@@H]3C | 18 µM
C[C@H]1CC[C@@]23C1=C[C@@]1(C)CC[C@](C)(C[C@H](O)[C@H](O)C4(C)CO4)[C@H]1[C@@H]2CC[C@@H]3C (stereo not given in full) | 18 µM
C[C@H]1CC[C@@]23C1=C[C@@]1(C)CC[C@](C)(C[C@H](O)[C@H](O)[C@@](C)(O)CO)[C@H]1[C@@H]2CC[C@@H]3C | 18 µM
C[C@H]1C[C@@H](O)[C@@]23C1=C[C@@]1(C)CC[C@](C)(C[C@H](O)[C@H](O)[C@@](C)(O)CO)[C@H]1[C@@H]2CC[C@@H]3C | 18 µM
C[C@H]1CC[C@@]23C1=C[C@@]1(C)CC[C@](C)(C[C@H](O)[C@H](O)[C@@](C)(O)CO)[C@H]1[C@@H]2C[C@@H](O)[C@@H]3C | 18 µM

Test system: RAW264.7
Assay: Antiinflammatory activity in LPS-stimulated mouse RAW264.7 cells assessed as inhibition of NO production incubated for 2 hrs followed by LPS stimulation measured after 48 hrs […]
Type: functional, cell-based
Conditions: not given

SMILES | IC50
C=C1[C@@H](OC(C)=O)[C@@H]2[C@](C)(C(=O)C(O)=C3C(C)(C)C(=O)CC[C@]32C)[C@]2(C(=O)OC)C(=O)[C@@H](C)OC(=O)[C@]12C | 13.4 µM
C=C1[C@@H](OC(C)=O)[C@@H]2[C@](C)(C(=O)C(O)=C3C(C)(C)C(=O)C=C[C@]32C)[C@]2(C(=O)OC)C(=O)[C@@H](C)OC(=O)[C@]12C | 13.4 µM
C=C1[C@@H](OC(C)=O)[C@H]2[C@]3(C)[C@H]4CC(=O)C(C)(C)[C@]43C(=O)[C@]3(O)OC4=C(C)OC(=O)[C@@]1(C)[C@]4(C(=O)OC)[C@]23C | 13.4 µM
COc1ccc2c(c1)c(CC(=O)O)c(C)n2C(=O)c1ccc(Cl)cc1 [INDOMETHACIN] | 24 µM

Test system: not listed separately
Assay: Inhibition of Influenza virus neuraminidase
Design: species or system unidentified influenza virus
Conditions: not given

SMILES | IC50
C=C1[C@]23C(=O)O[C@@H](C)[C@@]2(O)C(=O)O[C@@]1(C)[C@H](O)C1=C(C)[C@@]2(C=CC(=O)OC2(C)C)CC[C@]13C | 1.37 µM
C=C1[C@]23C(=O)O[C@@H](C)[C@@]2(O)C(=O)O[C@@]1(C)[C@H](OC(C)=O)C1=C(C)[C@@]2(C=CC(=O)OC2(C)C)CC[C@]13C | 1.37 µM
C=C1[C@@]2(CCC(=O)OC2(C)C)C[C@H](OC(=O)/C(C)=C/C)[C@@]2(C)[C@]34C(=C)[C@@]5(C)OC(=O)[C@@]3(O[C@@]12[C@H]5OC(C)=O)[C@H](C)OC4=O | 1.37 µM
C=C1[C@@]2(CCC(=O)OC2(C)C)C[C@H](OC(=O)c2ccccc2)[C@@]2(C)[C@@]34C(=O)O[C@@H](C)[C@@]35O[C@@]12[C@@H](OC(C)=O)[C@](C)(OC5=O)C4=O | 1.37 µM
C=C1C23O[C@@]45C(=O)O[C@](C)(C(=C)[C@@]4(C(=O)O[C@H]5C)[C@]2(C)[C@@H](OC(=O)c2ccccc2)C[C@]12CCC(=O)OC2(C)C)[C@@H]3OC(C)=O | 1.37 µM
C=C1[C@@]2(CCC(=O)OC2(C)C)CC[C@@]2(C)[C@]34C(=C)[C@@]5(C)OC(=O)[C@@]3(O[C@@]12[C@H]5O)[C@H](C)OC4=O | 1.37 µM
CCOC(=O)C1=C[C@@H](OC(CC)CC)[C@H](NC(C)=O)[C@@H](N)C1 [OSELTAMIVIR] | 0.99 µM

Test system: HL-60
Assay: Inhibition of cell adhesion of human HL-60 cells to human LPS-stimulated HUVEC cells incubated for 4 hrs with HUVEC cells followed by MTT-labeled HL-60 cells addition measured after 40 mins by absorbance based microplate reader analysis
Type: functional
Conditions: not given

SMILES | IC50
C=C(CO)[C@@]1(O)[C@@H](O)[C@@]2(C)[C@H](CCC[C@@H]2C)C[C@@H]1O | 15.6 µM
C=C1COC(OC)[C@@]12C[C@H]1C[C@H](O)C[C@H](C)[C@@]1(C)C2 (stereo not given in full) | 11.5 µM
C=C(CO)[C@]1(O)[C@@H](O)[C@@]2(C)[C@H](CCC[C@@H]2C)C[C@@H]1O | 20.7 µM

Test system: HCT-116
Assay: Cytotoxicity against human HCT-116 cells assessed as cell growth inhibition
Type: functional, cell-based
Conditions: not given

SMILES | IC50
C=C[C@]1(C)C=C2C(=O)C(O)=C3C(C)(C)CC[C@@H](O)[C@]3(C)[C@@]2(O)CC1 | 15 µM
C=C[C@]1(C)C=C2C(=O)C(O)=C3[C@](C)(CO)CC[C@@H](O)[C@]3(C)[C@@]2(O)CC1 | 53 µM
COC(=O)c1c(C)cc2c(c(C)c1=O)O[C@@]1(C)CC[C@H]3C(C)(C)OC(=O)C=C[C@]3(C)[C@@H]1C2 | 13.9 µM
COC(=O)c1c(C)cc2c(c(C)c1=O)O[C@@]1(C)CC[C@H]3C(C)(C)OC(=O)C[C@@H](O)[C@]3(C)[C@@H]1C2 | 13.2 µM
COC(=O)c1c(C)cc2c(c(C)c1=O)O[C@@]1(C)CC[C@H]3C(C)(C)OC(=O)C[C@@H](OC(C)=O)[C@]3(C)[C@@H]1C2 | 10.9 µM
C=C[C@]1(C)C=C2C(=O)C(O)=C3[C@](C)(CO)CC=C[C@]3(C)[C@@]2(O)CC1 | 15 µM

Target: T1, M-phase inducer phosphatase 2 (Homo sapiens, UniProt P30305)
T1 sequence (P30305 whole entry): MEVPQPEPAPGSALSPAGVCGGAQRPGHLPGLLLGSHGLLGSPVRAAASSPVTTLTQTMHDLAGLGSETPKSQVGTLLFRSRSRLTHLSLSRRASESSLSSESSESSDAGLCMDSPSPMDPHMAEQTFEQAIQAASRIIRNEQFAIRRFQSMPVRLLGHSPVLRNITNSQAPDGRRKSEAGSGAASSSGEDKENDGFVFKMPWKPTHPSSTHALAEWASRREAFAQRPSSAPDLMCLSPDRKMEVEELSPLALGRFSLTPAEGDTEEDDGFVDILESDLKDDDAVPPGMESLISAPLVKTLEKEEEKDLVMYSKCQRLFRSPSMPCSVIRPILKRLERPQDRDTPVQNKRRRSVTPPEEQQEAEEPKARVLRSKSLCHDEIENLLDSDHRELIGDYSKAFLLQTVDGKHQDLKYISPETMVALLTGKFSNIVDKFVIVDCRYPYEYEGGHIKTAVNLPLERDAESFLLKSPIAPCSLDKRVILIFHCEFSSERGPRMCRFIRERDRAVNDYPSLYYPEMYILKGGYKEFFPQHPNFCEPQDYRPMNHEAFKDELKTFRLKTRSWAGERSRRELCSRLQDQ
Assay: Inhibition of recombinant human CDC25B expressed in Escherichia coli using pnitrophenyl phosphate as substrate preincubated for 15 mins followed by substrate addition measured after 60 mins by absorbance based assay
Conditions: not given

SMILES | IC50
COC(=O)[C@]12[C@](C)(C(=O)[C@@]1(C)O)C(C)=C[C@H]1[C@]34CC[C@H](OC(C)=O)C(C)(C)[C@H]3[C@H](C[C@@]12C)OC4=O | 18 µM
COC(=O)[C@@]12C(=O)[C@@](C)(O)[C@]1(C)C(C)=C[C@H]1[C@]34CC[C@H](OC(C)=O)C(C)(C)[C@H]3[C@H](C[C@@]12C)OC4=O | 19 µM
COC(=O)[C@@]12C(=O)[C@](C)(O)C(=O)[C@@H](C(C)=C1C)C1[C@]2(C)C[C@@H]2OC(=O)[C@]13CC[C@H](OC(C)=O)C(C)(C)[C@@H]23 (stereo not given in full) | 20 µM

Test system: Mycolicibacterium smegmatis
Assay: Antibiofilm activity against Mycobacterium smegmatis assessed as inhibition of biofilm formation incubated for 4 days
Type: functional
Conditions: 96 h, time 4 day

SMILES | MIC
CC(C)=C/C=C\[C@H](C)[C@H]1CC[C@]2(C)C[C@H]3[C@H](C(=O)C[C@@]3(C)O)/C(C=O)=C\C[C@@H]12 | 25 µg/mL (≈ 64.9 µM)
CC(C)=C/C=C\[C@H](C)[C@H]1CC[C@]2(C)C[C@@H]3C(C)=CC(=O)[C@@H]3/C(C=O)=C\C[C@@H]12 | 6.23 µg/mL (≈ 17 µM)

Test system: HCT-116
Assay: Cytotoxicity against human HCT-116 cells assessed as cell growth inhibition by MTT assay
Type: functional, cell-based
Conditions: not given

SMILES | IC50
CC(C)=CCn1c2ccc(Br)c(=O)c-2nc2ccccc21 | 0.029 µM

Reference: ChEMBL document CHEMBL5104094, “Chemistry, biosynthesis and biological activity of terpenoids and meroterpenoids in bacteria and fungi isolated from different marine habitats” (Eur J Med Chem, 2021)
